Values quoted from earlier work in US20250268885A1, “ORAL COMPOSITION COMPRISING NICOTINAMIDE” (CONARIS Research Institute AG, priority 2022, published 2025).

Details: sources collected in PubChem

solubility relative to diclofenac sodium: several orders of magnitude higher
Structure (SMILES): NC(=O)c1cccnc1 [Nicotinamide, nicotinamide]
